Experimental data: patent publication US20240208934A1, “ULK1/2 INHIBITORS AND THEIR USE THEREOF” (LifeArc, priority 2021, published 2024)

System: ULK
Experiment: ULK radiometric assay (33P incorporation onto MBP substrate, glass fiber capture filter)
Conditions: ULK Biochemical activity; 20 uM ATP, 0.2 mg/mL MBP; averages of at least two independent experiments
Protocol: ULK activity was measured using a radiometric assay, to measure the incorporation of radiolabelled ^33P onto MBP substrate using a glass fiber capture filter method. Reaction conditions were 0.2 mg/mL MBP, 20 uM ATP (0.25 μCi/well), 50 mM Tris HCl, pH7.5, 10 mM MgCl2, 0.1% beta-mercaptoethanol, 0.1 mM EGTA, 0.01% BSA. Ten point Half log Compound dilution series were prepared in 100% DMSO and added to the reaction to give final assay concentration of 10% DMSO. Compounds were tested in duplicate and values normalized to 10% DMSO only controls. The data were fitted to a four parameter fit equation and the IC50 values shown are averages of at least two independent experiments.

| SMILES | IC50 [nM] |
| --- | --- |
| CN1CCc2cc(Nc3ncc(C4CC4)c(NCCCN4CCCCC4=O)n3)ccc2C1 [Example 11, 1-(3-((5-Cyclopropyl-2-((2-methyl-1,2,3,4-tetrahydroisoquinolin-6-yl)amino)pyrimidin-4-yl)amino)propyl)piperidin-2-one] | < 200 |
| O=C1CCCN1CCCNc1nc(Nc2ccc3c(c2)CCNC3)ncc1C(F)(F)F [Example 66, 1-[3-[[2-(1,2,3,4-tetrahydroisoquinolin-6-ylamino)-5-(trifluoromethyl)pyrimidin-4-yl]amino]propyl]pyrrolidin-2-one] | < 200 |
| CN1CCc2cc(Nc3ncc(C(F)(F)F)c(NCCCN4CCCCC4=O)n3)ccc2C1 [Example 7, 1-(3-((2-((2-Methyl-1,2,3,4-tetrahydroisoquinolin-6-yl)amino)-5-(trifluoromethyl)pyrimidin-4-yl)amino)propyl)piperidin-2-one] | < 200 |
| COc1cc2c(cc1Nc1ncc(C(F)(F)F)c(NCCCNC(=O)C3CCC3)n1)CNCC2 [Example 82, N-[3-[[2-[(6-methoxy-1,2,3,4-tetrahydroisoquinolin-7-yl)amino]-5-(trifluoromethyl)pyrimidin-4-yl]amino]propyl]cyclobutanecarboxamide] | < 200 |
| CNC(=O)c1ccc(Nc2ncc(C(F)(F)F)c(NCCCN3CCCCC3=O)n2)c(OC)c1 [Example 39, 3-Methoxy-N-methyl-4-[[4-[3-(2-oxo-1-piperidyl)propylamino]-5-(trifluoromethyl)pyrimidin-2-yl]amino]benzamide] | ≥ 1000 |
| COc1nn(CCN(C)C)cc1Nc1ncc(C(F)(F)F)c(NCCCN2CCCCC2=O)n1 [Example 3, 1-(3-((2-((1-(2-(Dimethylamino)ethyl)-3-methoxy-1H-pyrazol-4-yl)amino)-5-(trifluoromethyl)pyrimidin-4-yl)amino)propyl) piperidin-2-one] | < 200 |
| O=C1CCCCN1CCCNc1nc(Nc2ccc3c(c2)CCNC3)ncc1C(F)(F)F [Example 19, 1-[3-[[2-(1,2,3,4-Tetrahydroisoquinolin-6-ylamino)-5-(trifluoromethyl)pyrimidin-4-yl]amino]propyl]piperidin-2-one] | < 200 |
| FC(F)(F)c1cnc(Nc2ccc(N3CCOCC3)cc2)nc1NCC1CCNC1 (centres unmarked) [Example 87, N2-(4-morpholinophenyl)-N4-(pyrrolidin-3-ylmethyl)-5-(trifluoromethyl)pyrimidine-2,4-diamine] | 200 to 1000 |
| CN1CCC(Oc2cccc(Nc3ncc(C(F)(F)F)c(NCCCN4CCCCC4=O)n3)c2)CC1 [Example 8, 1-[3-[[2-[3-[(1-Methyl-4-piperidyl)oxy]anilino]-5-(trifluoromethyl)pyrimidin-4-yl]amino]propyl]piperidin-2-one] | < 200 |
| CN1CCC(Oc2cccc(Nc3ncc(C4CC4)c(NCCCN4CCCCC4=O)n3)c2)CC1 [Example 16, 1-(3-((5-Cyclopropyl-2-((3-((1-methylpiperidin-4-yl)oxy)phenyl)amino)pyrimidin-4-yl)amino)propyl)piperidin-2-one] | < 200 |
| CN1CCc2cc(Nc3ncc(C4CC4)c(NCCCN4CCCC4=O)n3)ccc2C1 [Example 9, 1-[3-[[5-cyclopropyl-2-[(2-methyl-3,4-dihydro-1H-isoquinolin-6-yl)amino]pyrimidin-4-yl]amino]propyl]pyrrolidin-2-one] | < 200 |
| FC(F)(F)c1cnc(Nc2ccc3c(c2)CCNC3)nc1NCC1CNCCO1 (centres unmarked) [Example 63, N4-(morpholin-2-ylmethyl)-N2-(1,2,3,4-tetrahydroisoquinolin-6-yl)-5-(trifluoromethyl)pyrimidine-2,4-diamine] | < 200 |
| O=C1CCCCN1CCCNc1nc(Nc2cc(OC3CCNCC3)ccc2Cl)ncc1C(F)(F)F [Example 44, 1-[3-[[2-[2-Chloro-5-(4-piperidyloxy)anilino]-5-(trifluoromethyl)pyrimidin-4-yl]amino]propyl]piperidin-2-one] | 200 to 1000 |
| COc1cc(C(=O)N2CCN(C)CC2)ccc1Nc1ncc(C(F)(F)F)c(NCCCN2CCCCC2=O)n1 [Example 41, 1-[3-[[2-[2-Methoxy-4-(4-methylpiperazine-1-carbonyl)anilino]-5-(trifluoromethyl)pyrimidin-4-yl]amino]propyl]piperidin-2-one] | 200 to 1000 |
| COc1cc(C(=O)NC2CCNCC2)ccc1Nc1ncc(C(F)(F)F)c(NCCCN2CCCCC2=O)n1 [Example 42, 3-Methoxy-4-[[4-[3-(2-oxo-1-piperidyl)propylamino]-5-(trifluoromethyl)pyrimidin-2-yl]amino]-N-(4-piperidyl)benzamide] | 200 to 1000 |
| COCc1ccc(Nc2ncc(C(F)(F)F)c(NCCCN3CCCCC3=O)n2)c(OC)c1 [Example 34, 1-[3-[[2-[2-Methoxy-4-(methoxymethyl)anilino]-5-(trifluoromethyl)pyrimidin-4-yl]amino]propyl]piperidin-2-one] | ≥ 1000 |

| SMILES | IC50 [nM] |
| --- | --- |
| Cn1cc(Nc2ncc(C(F)(F)F)c(NCCCN3CCCCC3=O)n2)c(OCC(F)(F)F)n1 [Example 48, 1-[3-[[2-[[1-Methyl-3-(2,2,2-trifluoroethoxy)pyrazol-4-yl]amino]-5-(trifluoromethyl)pyrimidin-4-yl]amino]propyl]piperidin-2-one] | 200 to 1000 |
| COc1ccc(N2CCOCC2)cc1Nc1ncc(C(F)(F)F)c(NCCCN2CCCCC2=O)n1 [Example 32, 1-[3-[[2-(2-Methoxy-5-morpholino-anilino)-5-(trifluoromethyl)pyrimidin-4-yl]amino]propyl]piperidin-2-one] | ≥ 1000 |
| Cc1cc2c(cc1Nc1ncc(C(F)(F)F)c(NCCCN3CCCCC3=O)n1)CNCC2 [Example 23, 6-methyl-7-[[4-[3-(2-oxo-1-piperidyl)propylamino]-5-(trifluoromethyl)pyrimidin-2-yl]amino]-3,4-dihydro-1H-isoquinoline] | < 200 |
| CN1CCc2cc(Nc3ncc(C(F)(F)F)c(NCCCN4CCCC4)n3)ccc2C1 [Example 6, N2-(2-methyl-1,2,3,4-tetrahydroisoquinolin-6-yl)-N4-(3-(pyrrolidin-1-yl)propyl)-5-(trifluoromethyl)pyrimidine-2,4-diamine] | 200 to 1000 |
| O=C1CCCN1CCCNc1nc(Nc2ccc3c(c2)CNCC3)ncc1C(F)(F)F [Example 77, 1-[3-[[2-(1,2,3,4-Tetrahydroisoquinolin-7-ylamino)-5-(trifluoromethyl)pyrimidin-4-yl]amino]propyl]pyrrolidin-2-one] | ≥ 1000 |
| CN(C)CCOc1ccc(Cl)c(Nc2ncc(C(F)(F)F)c(NCCCN3CCCCC3=O)n2)c1 [Example 58, 1-[3-[[2-[2-Chloro-5-[2-(dimethylamino)ethoxy]anilino]-5-(trifluoromethyl)pyrimidin-4-yl]amino]propyl]piperidin-2-one] | 200 to 1000 |
| O=C1CCCCN1CCCNc1nc(Nc2cc3c(cc2Cl)CNCC3)ncc1C(F)(F)F [Example 1, 1-(3-(2-(7-Chloro-1,2,3,4-tetrahydroisoquinolin-6-ylamino)-5(trifluoromethyl)pyrimidin-4-ylamino)propyl) piperidin-2-one] | < 200 |
| CN1CCc2ccc(Nc3ncc(C4CC4)c(NC4CC4)n3)cc2C1 [Example 18, N4,5-dicyclopropyl-N2-(2-methyl-1,2,3,4-tetrahydroisoquinolin-7-yl)pyrimidine-2,4-diamine] | < 200 |
| COc1cc2c(cc1Nc1ncc(C(F)(F)F)c(N3CCC(NC(C)=O)CC3)n1)CNCC2 [Example 71, N-[1-[2-[(6-methoxy-1,2,3,4-tetrahydroisoquinolin-7-yl)amino]-5-(trifluoromethyl)pyrimidin-4-yl]-4-piperidyl]acetamide] | ≥ 1000 |
| FC(F)(F)c1cnc(Nc2ccc(N3CCOCC3)cc2)nc1NCCC1CCNCC1 [Example 89, N2-(4-morpholinophenyl)-N4-[2-(4-piperidyl)ethyl]-5-(trifluoromethyl)pyrimidine-2,4-diamine] | 200 to 1000 |
| CN(C)CCCN(C)c1nc(Nc2ccc3c(c2)CCNC3)ncc1C(F)(F)F [Example 64, N4-[3-(dimethylamino)propyl]-N4-methyl-N2-(1,2,3,4-tetrahydroisoquinolin-6-yl)-5-(trifluoromethyl)pyrimidine-2,4-diamine] | 200 to 1000 |
| O=C(CCNc1nc(Nc2cc3c(cc2Cl)CNCC3)ncc1C(F)(F)F)N[C@@H](C1CC1)C(F)(F)F [Example 2, (S)-3-(2-(7-chloro-1,2,3,4-tetrahydroisoquinolin-6-ylamino)-5-(trifluoromethyl)pyrimidin-4-ylamino)-N-(1-cyclopropyl-2,2,2-trifluoroethyl)propanamide] | < 200 |
| COc1cc2c(cc1Nc1ncc(C(F)(F)F)c(NCCCn3ccnc3)n1)CNCC2 [Example 70, N4-(3-imidazol-1-ylpropyl)-N2-(6-methoxy-1,2,3,4-tetrahydroisoquinolin-7-yl)-5-(trifluoromethyl)pyrimidine-2,4-diamine] | 200 to 1000 |
| O=C1CCCCN1CCCNc1nc(Nc2cc(CN3CCOCC3)ccc2Cl)ncc1C(F)(F)F [Example 55, 1-[3-[[2-[2-Chloro-5-(morpholinomethyl)anilino]-5-(trifluoromethyl)pyrimidin-4-yl]amino]propyl]piperidin-2-one] | 200 to 1000 |
| O=C1CCCCN1CCCNc1nc(Nc2cc3c(cc2C(F)(F)F)CCNC3)ncc1C(F)(F)F [Example 45, 1-[3-[[5-(Trifluoromethyl)-2-[[6-(trifluoromethyl)-1,2,3,4-tetrahydroisoquinolin-7-yl]amino]pyrimidin-4-yl]amino]propyl]piperidin-2-one] | < 200 |
| O=C1CCCCN1CCCNc1nc(Nc2ccc3c(c2)COCC3)ncc1C(F)(F)F [Example 25, 1-[3-[[2-(Isochroman-7-ylamino)-5-(trifluoromethyl)pyrimidin-4-yl]amino]propyl]piperidin-2-one] | < 200 |
